Source: US20240376151A1, “STAPLED PEPTIDES AND METHODS THEREOF” (FOG PHARMACEUTICALS, INC., priority 2022, published 2024)
Peptide text beside a SMILES is read from it. * marks the point of attachment. 5FAM = O=C1OC2(c3ccc(O)cc3Oc3cc(O)ccc32)c2ccc(C(=O)*)cc21

Experiments:
Expi293 cells [1] = test: Measurement of the Cell Association of Helicons (mass spectrometry quantification in cells after treatment and wash); format: cell-based; settings: percentage of Helicons in cells after treatment and wash, 22 hours, n = 2, mean ± SD
Description: All samples were analyzed using mass spectrometry.

Expi293 cells [2] = test: CellTiter-Glo cell health (ATP levels) during cell association assay; format: cell-based; settings: reflective of cell health, luminescence Tfinal (22 hours) / Tinitial

| Compound | Helicon in cells ± SD (%) (Expi293 cells [1]) | CellTiter-Glo fold change ± SD (Expi293 cells [2]) |
| --- | --- | --- |
| CCCC[C@H](NC(=O)[C@@H](NC(C)=O)C(C)C)C(=O)N[C@@H](CCC(=O)O)C(=O)N[C@]1(C)CCCCCCC=CCCC[C@@](C)(C(=O)N[C@@H](Cc2c[nH]cn2)C(=O)N[C@@H](Cc2ccc(O)cc2)C(=O)N[C@H](C(N)=O)C(C)C)NC(=O)[C@H]([C@@H](C)CC)NC(=O)[C@H](Cc2ccccc2)NC(=O)[C@H](C)NC(=O)[C@H](C)NC(=O)[C@H](CCC(=O)O)NC(=O)[C@H](Cc2ccc(O)cc2)NC1=O (single isomer, unassigned) [FP07856, Ac-Val-nLeu-Glu-R8-Tyr-Glu-Ala-Ala-Phe-Ile-S5-His-Tyr-Val-NH2] | 15.5 ± 0.9 | 1.3 ± 0.12 |
| CCCC[C@H](NC(=O)[C@@H](NC(C)=O)C(C)C)C(=O)N[C@@H](CCC(=O)O)C(=O)N[C@]1(C)CCCCCCC=CCCC[C@@](C)(C(=O)N[C@@H](Cc2c[nH]cn2)C(=O)N[C@@H](Cc2ccc(O)cc2)C(=O)N[C@H](C(N)=O)C(C)C)NC(=O)[C@H]([C@@H](C)CC)NC(=O)[C@H](Cc2ccccc2)NC(=O)[C@H](C)NC(=O)[C@H](C)NC(=O)[C@H](CCC(=O)O)NC(=O)[C@H](Cc2ccc(O)cc2)NC1=O (single isomer, unassigned) [FP07855, Ac-Val-nLeu-Glu-R8-Tyr-Glu-Ala-Ala-Phe-Ile-S5-His-Tyr-Val-NH2] | 16.4 ± 0.6 | 1.2 ± 0.10 |
| CCCC[C@H](NC(=O)[C@@H](NC(C)=O)C(C)C)C(=O)N[C@@H](CCC(=O)O)C(=O)N[C@]1(C)CCCCCCC=CCCC[C@@](C)(C(=O)N[C@@H](Cc2c[nH]cn2)C(=O)N[C@@H](Cc2ccc(O)cc2)C(=O)N[C@H](C(N)=O)C(C)C)NC(=O)[C@H]([C@@H](C)CC)NC(=O)[C@H](Cc2ccccc2)NC(=O)[C@H](C)NC(=O)[C@H](C)NC(=O)[C@H](CCC(N)=O)NC(=O)[C@H](Cc2ccc(O)cc2)NC1=O (single isomer, unassigned) [FP07867, Ac-Val-nLeu-Glu-R8-Tyr-Gln-Ala-Ala-Phe-Ile-S5-His-Tyr-Val-NH2] | 8.6 ± 0.4 | 1.2 ± 0.03 |
| CC(=O)N[C@@H](CC(C)C)C(=O)N[C@H](C(=O)N[C@@H](Cc1ccccc1)C(=O)N[C@]1(C)CCCCCCC=CCCC[C@@](C)(C(=O)N[C@@H](CO)C(=O)N[C@@H](C)C(=O)N[C@@H](C)C(N)=O)NC(=O)[C@H](CC2CCC2)NC(=O)[C@H](CCC(N)=O)NC(=O)[C@H](C)NC(=O)[C@H](Cc2c[nH]c3ccccc23)NC(=O)[C@H](Cc2ccc(O)cc2)NC(=O)[C@H](CCC(=O)O)NC1=O)[C@@H](C)O [FP01413, Ac-Leu-Thr-Phe-R8-Glu-Tyr-Trp-Ala-Gln-Cba-S5-Ser-Ala-Ala-NH2, reference compound] | 3.7 ± 0.4 | 1.2 ± 0.07 |
| CC[C@H](C)[C@H](NC(=O)[C@H](Cc1ccc(O)cc1)NC(=O)[C@H](CCC(N)=O)NC(=O)[C@]1(C)CCCC=CCCCCCC[C@@](C)(NC(=O)[C@H](Cc2c[nH]cn2)NC(=O)[C@@H](NC(=O)[C@@H](NC(C)=O)[C@@H](C)CC)[C@@H](C)CC)C(=O)N[C@@H](Cc2ccc(O)cc2)C(=O)N[C@@H](CCC(=O)O)C(=O)N[C@@H](C)C(=O)N[C@@H](C)C(=O)N[C@@H](Cc2ccccc2)C(=O)N[C@@H](Cc2ccccc2)C(=O)N1)C(N)=O (single isomer, unassigned) [FP08011, Ac-Ile-Ile-His-R8-Tyr-Glu-Ala-Ala-Phe-Phe-S5-Gln-Tyr-Ile-NH2] | 6.5 ± 0.5 | 1.2 ± 0.01 |
| CC[C@H](C)[C@H](NC(C)=O)C(=O)N[C@@H](CC(C)C)C(=O)N[C@@H](CCC(N)=O)C(=O)N[C@]1(C)CCCCCCC=CCCC[C@@](C)(C(=O)N[C@@H](Cc2c[nH]cn2)C(=O)N[C@@H](Cc2ccc(O)cc2)C(=O)N[C@@H](CCC(N)=O)C(N)=O)NC(=O)[C@H](CO)NC(=O)[C@H](Cc2ccccc2)NC(=O)[C@H](C)NC(=O)[C@H](C)NC(=O)[C@H](CCC(=O)O)NC(=O)[C@H](Cc2ccc(O)cc2)NC1=O (single isomer, unassigned) [FP07860, Ac-Ile-Leu-Gln-R8-Tyr-Glu-Ala-Ala-Phe-Ser-S5-His-Tyr-Gln-NH2] | 0.3 ± 0.0 | 1.2 ± 0.03 |
| CC[C@H](C)[C@H](NC(=O)[C@H](Cc1ccc(O)cc1)NC(=O)[C@H](CCC(N)=O)NC(=O)[C@]1(C)CCCC=CCCCCCC[C@@](C)(NC(=O)[C@H](Cc2c[nH]cn2)NC(=O)[C@@H](NC(=O)[C@@H](NC(C)=O)[C@@H](C)CC)[C@@H](C)CC)C(=O)N[C@@H](Cc2ccc(O)cc2)C(=O)N[C@@H](CCC(=O)O)C(=O)N[C@@H](C)C(=O)N[C@@H](C)C(=O)N[C@@H](Cc2ccccc2)C(=O)N[C@@H](Cc2ccccc2)C(=O)N1)C(N)=O (single isomer, unassigned) [FP08012, Ac-Ile-Ile-His-R8-Tyr-Glu-Ala-Ala-Phe-Phe-S5-Gln-Tyr-Ile-NH2] | 5.4 ± 0.9 | 1.1 ± 0.04 |
| CCCC[C@H](NC(=O)[C@@H](NC(C)=O)C(C)C)C(=O)N[C@@H](CCC(=O)O)C(=O)N[C@]1(C)CCCCCCC=CCCC[C@@](C)(C(=O)N[C@@H](Cc2c[nH]cn2)C(=O)N[C@@H](Cc2ccc(O)cc2)C(=O)N[C@H](C(N)=O)C(C)C)NC(=O)[C@H]([C@@H](C)CC)NC(=O)[C@H](Cc2ccccc2)NC(=O)[C@H](C)NC(=O)[C@H](C)NC(=O)[C@H](CCC(N)=O)NC(=O)[C@H](Cc2ccc(O)cc2)NC1=O (single isomer, unassigned) [FP07868, Ac-Val-nLeu-Glu-R8-Tyr-Gln-Ala-Ala-Phe-Ile-S5-His-Tyr-Val-NH2] | 10.3 ± 1.4 | 1.2 ± 0.10 |
| CCCC[C@H](NC(=O)[C@H](Cc1ccc(O)cc1)NC(=O)[C@H](CCC(N)=O)NC(=O)[C@]1(C)CCCC=CCCCCCC[C@@](C)(NC(=O)[C@H](CCC(=O)O)NC(=O)[C@H](CC(C)C)NC(=O)[C@@H](NC(C)=O)[C@@H](C)CC)C(=O)N[C@@H](Cc2ccc(O)cc2)C(=O)N[C@@H](CCC(=O)O)C(=O)N[C@@H](C)C(=O)N[C@@H](C)C(=O)N[C@@H](Cc2ccccc2)C(=O)N[C@@H](CCC(=O)O)C(=O)N1)C(N)=O (single isomer, unassigned) [FP08018, Ac-Ile-Leu-Glu-R8-Tyr-Glu-Ala-Ala-Phe-Glu-S5-Gln-Tyr-nLeu-NH2] | 1.0 ± 0.1 | 1.1 ± 0.05 |
| CCCC[C@H](NC(=O)[C@@H](NC(C)=O)C(C)C)C(=O)N[C@@H](CCC(N)=O)C(=O)N[C@]1(C)CCCCCCC=CCCC[C@@](C)(C(=O)N[C@@H](Cc2c[nH]cn2)C(=O)N[C@@H](Cc2ccc(O)cc2)C(=O)N[C@H](C(N)=O)C(C)C)NC(=O)[C@H]([C@@H](C)CC)NC(=O)[C@H](Cc2ccccc2)NC(=O)[C@H](C)NC(=O)[C@H](C)NC(=O)[C@H](CCC(N)=O)NC(=O)[C@H](Cc2ccc(O)cc2)NC1=O (single isomer, unassigned) [FP07872, Ac-Val-nLeu-Gln-R8-Tyr-Gln-Ala-Ala-Phe-Ile-S5-His-Tyr-Val-NH2] | 11.7 ± 1.6 | 1.1 ± 0.02 |
| CCCC[C@H](NC(=O)[C@@H](NC(C)=O)C(C)C)C(=O)N[C@@H](CCC(N)=O)C(=O)N[C@]1(C)CCCCCCC=CCCC[C@@](C)(C(=O)N[C@@H](Cc2c[nH]cn2)C(=O)N[C@@H](Cc2ccc(O)cc2)C(=O)N[C@H](C(N)=O)C(C)C)NC(=O)[C@H]([C@@H](C)CC)NC(=O)[C@H](Cc2ccccc2)NC(=O)[C@H](C)NC(=O)[C@H](C)NC(=O)[C@H](CCC(=O)O)NC(=O)[C@H](Cc2ccc(O)cc2)NC1=O (single isomer, unassigned) [FP07863, Ac-Val-nLeu-Gln-R8-Tyr-Glu-Ala-Ala-Phe-Ile-S5-His-Tyr-Val-NH2] | 23.5 ± 6.5 | 1.2 ± 0.02 |
| Ac-[5FAM]-Lys-Gln-Ser-Gln-Gln-Thr-Phe-R8-Asn-Leu-Trp-Arg-Leu-Leu-S5-Gln-Asn-NH2 (KQSQQTFXNLWRLLXQN; Ac, 5FAM, R8-S5 staple, C-terminal amide; SITE 1 Acetylated 5-Carboxyfluorescein modified residue; SITE 8 (R)-2-amino-2-methyldec-9-enoic acid, useful for stapling/stapled with another amino acid residue comprising an olefin group to form a staple through the olefin group; SITE 15 (S)-2-amino-2-methylhept-6-enoic acid, useful for stapling/stapled with another amino acid residue comprising an olefin group to form a staple through the olefi) [FP47839, reference compound] | 2.1 ± 0.1 | 1.3 ± 0.01 |
| CC(C)C[C@H](NC(=O)[C@H](C)NC(=O)CNC(=O)[C@H](CCCCN)NC(=O)[C@H](CCCNC(=N)N)NC(=O)[C@H](C)NC(=O)[C@H](Cc1ccccc1)NC(=O)[C@H](CCCNC(=N)N)NC(=O)[C@H](CCC(N)=O)NC(=O)c1ccc2c(c1)C(=O)OC21c2ccc(O)cc2Oc2cc(O)ccc21)C(=O)N[C@@H](CCCNC(=N)N)C(=O)N[C@@H](CCC(N)=O)C(=O)N[C@@H](CCCCN)C(=O)N[C@@H](CC(N)=O)C(=O)N[C@H](C(N)=O)C(C)C [FP47831, reference compound] (5FAM-QRFARKGALRQKNV-NH2) | 0.0 ± 0.0 | 1.1 ± 0.02 |
| CCCC[C@H](NC(=O)[C@@H](NC(C)=O)C(C)C)C(=O)N[C@@H](CCC(N)=O)C(=O)N[C@]1(C)CCCCCCC=CCCC[C@@](C)(C(=O)N[C@@H](Cc2c[nH]cn2)C(=O)N[C@@H](Cc2ccc(O)cc2)C(=O)N[C@H](C(N)=O)C(C)C)NC(=O)[C@H]([C@@H](C)CC)NC(=O)[C@H](Cc2ccccc2)NC(=O)[C@H](C)NC(=O)[C@H](C)NC(=O)[C@H](CCC(N)=O)NC(=O)[C@H](Cc2ccc(O)cc2)NC1=O (single isomer, unassigned) [FP07871, Ac-Val-nLeu-Gln-R8-Tyr-Gln-Ala-Ala-Phe-Ile-S5-His-Tyr-Val-NH2] | 7.0 ± 0.3 | 1.2 ± 0.03 |
